Test results: US12564601B2, “Methods for treating hepatitis B infection” (priority 2017, dated 2026)
Like-named read-outs stand apart in the source and are kept apart here.

Key:
[1] = tested on: HBV; assay: Entecavir combination study in HBV-expressing mouse (HDI model); assay type: in vivo, mice; details: for circulating (plasma) HBsAg / hepatic viral RNAs (liver HBV mRNA and pgRNA): HDI model; for circulating (plasma) HBsAg: ELISA; for hepatic viral RNAs (liver HBV mRNA and pgRNA): qPCR
Procedure: The RNAi oligonucletoides targeting the S antigen impact both the viral polymerase and HBsAg protein. In this study, the combinational effects of HBV(s)-219P2 as a monotherapy and combinational treatment with entecavir was explored in an HBV-expressing mouse (HDI model) for antiviral activity.
Mice were administered daily oral dosing of 500 ng/kg Entecavir (ETV) for 14 days. A single subcutaneous administration of HBV(s)-219P2 took place. Circulating viral load (HBV DNA) was measured by qPCR (FIG. 15A), plasma HBsAg level was measured by ELISA (FIG. 15B), and liver HBV mRNA and pgRNA levels were measured by qPCR.

[2] = tested on: HBsAg mRNA; assay: Time course of HBsAg mRNA expression in HDI model of HBV; assay type: in vivo, mouse; details: three once-weekly doses of 3 mg/kg
Procedure: The durational effects of the HBV(s)-219P1 oligonucleotide were examined in two different mouse models of HBV—an HDI model, which is cccDNA-dependent, and an AAV model, which is cccDNA independent. A time course (12 weeks) analysis of HBsAg mRNA expression was performed in the context of a treatment involving three once-weekly doses of 3 mg/kg with the HBV(s)-219P1 oligonucleotide targeting HBsAg mRNA compared with vehicle control and an RNAi oligonucleotide targeting HBxAg mRNA in the HDI model of HBV (FIG. 12A).

[3] = tested on: HBsAg; assay: Plasma HBsAg suppression, S- versus X-targeting oligonucleotides, HDI model; assay type: in vivo, mice; details: single saturating 9 mg/kg SC dose, n=3
Procedure: In this study, HBV-expressing mice (HDI model) were administered HBV(s)-219P2, GalXC-HBVX (same sequence as the GalXC-HBVX used in FIGS. 12A and 12B), or a combination of the two RNAi oligonucleotides and plasma HBsAg level two weeks or nine weeks post dose were monitored.

[4] = tested on: HBsAg viral transcript; assay: HBsAg levels in HDI-mice after subcutaneous HBV-254; assay type: in vivo
Procedure: Preclinical potency was further evaluated in mice following a QW×3 dosing regimen in which HBV-254 was subcutaneously administered at 3 mg/kg (FIG. 3). The administration points are indicated by arrows in the figure. HBsAg levels were monitored in both oligonucleotide treated and untreated control mice for a period spanning 147 days.

[5] = tested on: HBV Genotype A S ORF reporter sequence; assay: psiCHECK2 dual-luciferase reporter mismatch assay in HeLa cells; assay type: cell-based
Text: A psiCHECK-2 dual-luciferase reporter system was utilized to evaluate the effects of a mismatch at a selected position in each of HBV-217, HBV-219, HBV-254, HBV-255, and HBV-258. The psiCHECK vector enables monitoring of changes in expression of a target gene fused to a reporter gene, where active RNAi degrades the fusion construct to produce a corresponding decrease in reporter signal. The diagram in FIG. 6 generically depicts the vector utilized in these assays. The parent partial reporter sequence contained 120 base-pair fragments from Genotype A (GenBank: AM282986.1) around target sites of interest in the S ORE. […]
The psiCHECK2 reporter assays with each oligonucleotide were conducted over a three-day period using a 6-point, 5-fold serial dilution starting at 1 nM transfected in HeLa cells. […] The cells were then incubated at 37° C. in a CO2 incubator until the cells were ready to harvest and assay for the target gene. On day 3, 100 μL of Dual-Glo Reagent was added to each well, mixed and incubated for 10 minutes before reading the luminescence. A further 100 μL of Dual-Glo Stop & Glo was added to each well, mixed and incubated for 10 minutes before reading the luminescence. […] The EC50s values determined for each oligonucleotide are shown in Table 3 with additional specifications.

C=C1[C@H](CO)[C@@H](O)C[C@@H]1n1cnc2c(=O)[nH]c(N)nc21 [entecavir, Entecavir] was tested, and the “mean decrease in HBV DNA in plasma relative to PBS” value ([1]; 500 ng/kg PO daily for 14 days, n=6) was ~1.6 log, the “circulating (plasma) HBsAg” value [1] was “No significant decrease” and the “circulating (plasma) HBsAg” value ([1]; listed as ETV) was “no efficacy”. The “hepatic viral RNAs (liver HBV mRNA and pgRNA)” value [1] was “No significant decrease” and the “hepatic viral RNAs (liver HBV mRNA and pgRNA)” value ([1]; listed as ETV) was “no efficacy”.

In the case of “GalXC-HBVX: RNAi oligonucleotide targeting HBxAg mRNA, sense strand SEQ ID NO: 39, antisense strand SEQ ID NO: 40 (sense UGCACUUCGCGUCACCUCUAGCAGCCGAAAGGCUGC; antisense UAGAGGUGACGCGAAGUGCAGG; GalNAc conjugate (GalXC), modification pattern not given here)”, the duration of activity [2] is reported as “shorter duration”, the “reduction of HBsAg mRNA expression” value ([2]; 12-week time course) is reported as ~3.0 log and the “plasma HBsAg suppression 9 weeks post dose / duration” value [3] is reported as “significant recovery of HBsAg”.

In the case of “HBV-254: HBsAg-targeting duplex oligonucleotide, sense strand SEQ ID NO: 23, antisense strand SEQ ID NO: 24 (sense GUGGUGGACUUCUCUCAAUAGCAGCCGAAAGGCUGC; antisense UAUUGAGAGAAGUCCACCACGG; listed as RNA, chemistry not given here)”, the “HBsAg levels relative to control” value ([4]; QW×3, 3 mg/kg subcutaneous, monitored 147 days (FIG. 3)) is reported as “Diminished HBsAg levels persisted in treated mice throughout the entirety of the study”, the HBsAg levels ([4]; single dose evaluation, subcutaneous, HDI-mice (FIG. 2)) is reported as “systematically reduced HBsAg levels in mice with increasing dosage” and the EC50 ([5]; mismatch duplex, single mismatch to reporter at stated guide position, read-out: MM EC50s) is reported as 0.096 nM. For the same molecule, the EC50 ([5]; parent duplex, 100% homology to reporter, read-out: Parent EC50s) was 0.037 nM.
